According to patent US11286258B2, “Nature-inspired anticancer and antibacterial motifs and pharmaceutical composition thereof” (University of Sharjah, priority 2020, dated 2022):

Tests used:
SKBR3 and SKOV3 = test: Crystal violet and DAPI staining; format: cell-based, human; details: compared to compounds 1d and 1k; 48 h
Protocol: Colony formation assay: Human Normal epithelial cells, SKBR3, and SKOV3 cells were treated with 1d, 1e and 1k compounds with indicated concentrations for 48 h. Then cells were fixed with colony fixation solution (Acetic acid/Methanol (1:7) vol/vol) at room temperature. 15 minutes later fixation solution was removed and cells were washed again carefully with 1×PBS. Cells were stained with 0.5% crystal violet at room temperature for 20 minutes. Crystal violet was removed and cells were washed carefully 3 times with distilled water to remove excess dye. Colony growth was visualized by crystal violet staining. DAPI staining: SKBR3 and SKOV3 cells were treated with indicated compounds. After 48 h of treatment, the media were removed from cell lines and cells were washed with 1× cold PBS. Cells were fixed with (Acetic acid/Methanol (1:7) vol/vol)) solution for 15 minutes at RT and then washed with 1× cold PBS. Permeabilization was performed with 0.1% Triton X-100 for 5 minutes and then cells were washed with 1× cold PBS. Cells were stain with DAPI solution for 15 minutes at RT and then cells were washed 3 times with 1× cold PBS. Images were taken using a fluorescence microscope.

SKBR3 cells = test: Western blot, autophagy- and iron metabolism-related proteins, SKBR3; format: cell-based, human
Protocol: Western Blotting (autophagy- and iron metabolism-related proteins): Cells were grown in DMEM supplemented with 10% FBS and 1×PEST (Penicillin and streptomycin antibiotics) at 37° C. in incubator having humidified atmosphere with 5% CO2. The media were removed and cells were washed twice with 1× cold PBS. Cells lysis was performed with RIPA lysis buffer containing (150 mM sodium chloride, 1.0% NP-40, 0.1% SDS, 50 mM Tris pH 8.0, 0.5% sodium deoxycholate supplemented with protease inhibitors cocktail). Cells were kept on icebox during the lysis process. Cold lysis buffer was added to each well directly and then cells were scraped and collected in 1.5 ml Eppendorf tube. Cell lysis was kept on icebox for 20 minutes and then centrifuged at 4° C. for 10 minutes. The supernatant was collected and the pellet was discarded. After, protein quantification, samples were boiled in 5× loading buffer at 95° C. for 5 minutes. After completion of the gel running and transfer process, the membrane was stained with ponceau solution. After that, the membrane was washed with 1×TBST and then blocked in 5% non-fat dry milk for 1 hr at room temperature. The membrane was washed 3 times with 1×TBST and then incubated with indicated primary antibodies at 4° C. overnight. Primary antibodies were removed; the membrane was washed 3 times with 1×TBST and then incubated with secondary antibodies for 2 h at room temperature. Secondary antibodies were diluted in 5% non-fat dry milk in 1× TB ST. After removal of the secondary antibody, the membrane was washed 3 times with 1×TBST. The membrane was incubated in ECL solution and the signal was developed using Gel Doc system from Biorad.

FC(F)(F)c1ccc(N/N=C2\C=C[C@@]3(CC2)CC[C@@H]2NCCc4c2n3c2ccccc42)cc1 (racemic) [Compound 1e]
Nuclear damage in cancer cell lines (DAPI staining) (SKBR3 and SKOV3): greater levels of nuclear damage | Expression of BECLIN-1 (SKBR3 cells): induced | Expression of Ferritin (FTH1) (SKBR3 cells): induced | Expression of LC3B1/II (SKBR3 cells): induced | Expression of pH2AX (SKBR3 cells): induced
